The conditions of this data set: Crystal; visual observation.

± gives the expanded uncertainty stated by the source.

Take `O=[N+]([O-])/N=C1\NCCN1Cc1ccc(Cl)nc1` [imidacloprid]: the Normal melting temperature is 144.00 ± 0.68 °C.

The values above are taken from the NIST ThermoML archive (doi:10.1021/je7004038).
